Data set [1] has as its system SARS-CoV-2. Nature of the data set: microbe, parasite or virus in culture. Type of data set: cell-based. Particulars: Severe acute respiratory syndrome coronavirus 2, A549, 48 h; read-out: IC50 for inhibition of SARS CoV-2 mediated cell killing.
Data set [2] relates to SARS CoV-2. Description: SARS CoV-2 CPE assay for antiviral activity in Vero E6 host cells. The settings on record: read-out: IC50 for inhibition of SARS CoV-2 mediated cell killing. The data set is classed as cell-based, coronavirus USA_WA1/2020 SARS CoV-2.
Data set [3] has as its system Vero E6 cells. Description: in vitro. The data set is classed as cell-based. Particulars: African green monkey, 72 h. On the procedure:
(§1) Compound cytotoxicity (CC50) is assessed in a BSL-2 counter screen as follows: Host cells in media are added in 25 μl aliquots (4000 cells/well) to each well of assay ready plates prepared with test compounds as above. […] DMSO is maintained at a constant concentration for all wells (0.3%) as dictated by the dilution factor of stock test compound concentrations. After incubating plates at 37° C./5% CO2 and 90% humidity for 72 hours, 30 μl Cell Titer-Glo (Promega) is added to each well. Luminescence is read using a BMG PHERAstar plate reader following incubation at room temperature for 10 minutes to measure cell viability.

Data set [4] in a line: in vitro. Particulars: African green monkey. The data set is classed as cell-based. As to the method: as §1
Where [5] appears, read: Vero C1008, Vero E6 cells, CPE assay, 72 hours, 10-point dose response, high concentration 15 μM.

Where two headings read alike, the source gives them in different places.

Usually IC50 stands for the point on the concentration scale where inhibition reaches its midpoint. By CC50 is commonly meant the concentration that lowers cell viability or growth by half.

As for `Cc1cscc1-c1cc(N2CCOC[C@H]2C)cc(=O)[nH]1` [Compound 3], the IC50 in data set [1] was 6.39 µM; in data set [2] (Vero C1008, 72 h) it was above 10 µM. The cytotoxic concentration (CC50) in data set [3] is above 10 µM. Besides, the CC50 at 72 h in data set [4] was above 10 µM.
Consider `C[C@@H]1COCCN1c1cc(-c2ccccc2Cl)[nH]c(=O)c1` [Compound 2], for which the IC50 in data set [1] stood at 0.83 µM; in data set [2] (setting [5]) it was 2.76 µM. This molecule also had a CC50 in data set [3] above 30 µM. The CC50 at 72 h in data set [4] is above 30 µM.
In the case of `C[C@@H]1COCCN1c1cc(-c2ccccc2C(F)(F)F)[nH]c(=O)c1` [Compound 1], the figures for the IC50 in data set [1] and in data set [2] (setting [5]) were 2.05 µM and 3.91 µM, respectively. The molecule further gave a CC50 in data set [3] above 30 µM. For the same molecule, in data set [4], the CC50 at 72 h was above 30 µM.
